The values below come from patent US11505528B2, “Inhibitors of microbially induced amyloid” (Axial Therapeutics, Inc., priority 2017, dated 2022).

Like-named read-outs stand apart in the source and are kept apart here.

Test [1] addresses T1, E. coli CsgA (Escherichia coli, UniProt P28307).
T1 construct: 6xHis (C); made in house; host or cells: E. coli NEB 3016 slyD::kan
Put plainly: Thioflavin T cell-free assay of CsgA aggregation. The test is classed as biochemical.

For test [2], the target named is T2, human α-synuclein (Homo sapiens, UniProt P37840).
T2 construct: the full-length gene for untagged human α-synuclein was inserted; made in house; host or cells: E. coli BL21 (DE3)
The test can be described thus: Thioflavin T cell-free assay of α-synuclein aggregation. Format: biochemical. As to conditions: α-synuclein 50 μM, compounds at 20-50 μM, data from 36 hours; for Inhibition of Aggregation, αSyn: ThT fluorescence, negative = potentiation.

Where [3] appears, read: read-out: Inhibition of Aggregation, CsgA.
Setting [4] is: read-out: Inhibition of Aggregation, CsgA (compound activity range).

T1 sequence (P28307 23-151): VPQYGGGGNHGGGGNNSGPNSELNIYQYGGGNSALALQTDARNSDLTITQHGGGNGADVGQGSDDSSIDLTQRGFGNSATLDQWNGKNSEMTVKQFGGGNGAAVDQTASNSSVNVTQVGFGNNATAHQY

`COc1cc(NC(=O)c2c(NC(=O)c3cc(OC)c(OC)c(OC)c3)sc3c2CCCC3)cc(OC)c1OC` [Compound 1, 2-(3,4,5-trimethoxybenzamido)-N-(3,4,5-trimethoxyphenyl)-4,5,6,7-tetrahydrobenzo[b]thiophene-3-carboxamide]: the results for the inhibition at 20 µM in test [1] (setting [3]) and in test [1] (setting [4]) were 8% and -10 to 10%, respectively.
As to `COc1cc(OC)cc(C(=O)Nc2sc3c(c2C(=O)Nc2cc(OC)c(OC)c(OC)c2)CCCC3)c1` [Compound 3, 2-(3,5-dimethoxybenzamido)-N-(3,4,5-trimethoxyphenyl)-4,5,6,7-tetrahydrobenzo[b]thiophene-3-carboxamide], the inhibition at 20 µM in test [1] (setting [3]) is -11%; in test [1] (setting [4]) it was less than -10%.
On to `O=C(Nc1sc2c(c1C(=O)Nc1cc(O)c(O)c(O)c1)CCCC2)c1cc(O)cc(O)c1` [Compound 4, 2-(3,5-dihydroxybenzamido)-N-(3,4,5-trihydroxyphenyl)-4,5,6,7-tetrahydrobenzo[b]thiophene-3-carboxamide], for which the inhibition at 20 µM in test [1] (setting [3]) was 43%; in test [1] (setting [4]) it was 30 to 60%.
`COc1cc(NC(=O)c2c(NC(=O)c3cc(OC)c(OC)c(OC)c3)sc3c2CCCC3)cc(OC)c1` [Compound 5, N-(3,5-dimethoxyphenyl)-2-(3,4,5-trimethoxybenzamido)-4,5,6,7-tetrahydrobenzo[b]thiophene-3-carboxamide]: in test [2], the “Inhibition of Aggregation, αSyn” value worked out at 22% and the “Inhibition of Aggregation, αSyn (compound activity range)” value (“Inhibition … (compound activity range)” below) is “(+) ((+) is between 10% to 30% inhibition)”. Further, the inhibition at 20 µM in test [1] (setting [3]) is -4%. Besides, the inhibition at 20 µM in test [1] (setting [4]) is -10 to 10%.
As to `COc1cc(C(=O)Nc2sc3c(c2C(=O)N(C)c2cc(OC)c(OC)c(OC)c2)CCCC3)cc(OC)c1OC` [Compound 7, N-methyl-2-(3,4,5-trimethoxybenzamido)-N-(3,4,5-trimethoxyphenyl)-4,5,6,7-tetrahydrobenzo[b]thiophene-3-carboxamide], the inhibition at 20 µM is 2% in test [1] (setting [3]) and -10 to 10% in test [1] (setting [4]).
For the molecule `O=C(Nc1sc2c(c1C(=O)Nc1ccccc1)CCCC2)c1cc(O)c(O)c(O)c1` [Compound 8, N-phenyl-2-(3,4,5-trihydroxybenzamido)-4,5,6,7-tetrahydrobenzo[b]thiophene-3-carboxamide], in test [2], the “Inhibition of Aggregation, αSyn” value is on record as 18% and the “Inhibition … (compound activity range)” value is “(+) ((+) is between 10% to 30% inhibition)”. In addition, the inhibition at 20 µM in test [1] (setting [3]) worked out at 13%. In addition, the inhibition at 20 µM in test [1] (setting [4]) was 10 to 30%.
With `COc1cc(C(=O)Nc2sc3c(c2C(=O)Nc2ccccc2)CCCC3)cc(OC)c1OC` [Compound 9, N-phenyl-2-(3,4,5-trimethoxybenzamido)-4,5,6,7-tetrahydrobenzo[b]thiophene-3-carboxamide], the results for the inhibition at 20 µM in test [1] (setting [3]) and in test [1] (setting [4]) were -33% and less than -10%, respectively.
On to `COc1cc(NC(=O)c2c(NC(=O)c3ccccc3)sc3c2CCCC3)cc(OC)c1OC` [Compound 11, 2-benzamido-N-(3,4,5-trimethoxyphenyl)-4,5,6,7-tetrahydrobenzo[b]thiophene-3-carboxamide], for which the inhibition at 20 µM in test [1] (setting [3]) was -24%; in test [1] (setting [4]) it was less than -10%.
In the same order, the values of `COc1cc(C(=O)Nc2sc3c(c2C(N)=O)CCCC3)cc(OC)c1OC` [Compound 12, 2-(3,4,5-trimethoxybenzamido)-4,5,6,7-tetrahydrobenzo[b]thiophene-3-carboxamide] are -23% and less than -10%.
In the same order, the values of `COc1cc(NC(=O)c2c(N(C)C(=O)c3cc(OC)c(OC)c(OC)c3)sc3c2CCCC3)cc(OC)c1OC` [Compound 13, 2-(3,4,5-trimethoxy-N-methylbenzamido)-N-(3,4,5-trimethoxyphenyl)-4,5,6,7-tetrahydrobenzo[b]thiophene-3-carboxamide] are -16% and less than -10%.
For the molecule `NC(=O)c1c(NC(=O)c2cc(O)c(O)c(O)c2)sc2c1CCCC2` [Compound 15, 2-(3,4,5-trihydroxybenzamido)-4,5,6,7-tetrahydrobenzo[b]thiophene-3-carboxamide], the figures for the inhibition at 20 µM in test [1] (setting [3]) and in test [1] (setting [4]) were 52% and 30 to 60%, respectively.
Taken in the same sequence, the figures for `Nc1sc2c(c1C(=O)Nc1cc(O)c(O)c(O)c1)CCCC2` [Compound 16, 2-amino-N-(3,4,5-trihydroxyphenyl)-4,5,6,7-tetrahydrobenzo[b]thiophene-3-carboxamide] were 31% and 30 to 60%.
In the same order, the values of `COc1cc(C(=O)Nc2sc3c(c2C(=O)O)CCCC3)cc(OC)c1OC` [Compound 17, 2-(3,4,5-trimethoxybenzamido)-4,5,6,7-tetrahydrobenzo[b]thiophene-3-carboxylic acid] are 18% and 10 to 30%.
Take `O=C(Nc1sc2c(c1C(=O)Nc1cc(O)c(O)c(O)c1)CCCC2)c1ccccc1` [Compound 18, 2-benzamido-N-(3,4,5-trihydroxyphenyl)-4,5,6,7-tetrahydrobenzo[b]thiophene-3-carboxamide]: the inhibition at 20 µM in test [1] (setting [3]) is 16%; in test [1] (setting [4]) it was 10 to 30%.
For the molecule `COc1cc(OC)c2c(=O)c(C(=O)Nc3cc(OC)c(OC)c(OC)c3)c[nH]c2c1` [Compound 21, 5,7-dimethoxy-4-oxo-N-(3,4,5-trimethoxyphenyl)-1,4-dihydroquinoline-3-carboxamide], in test [2], the “Inhibition of Aggregation, αSyn” value is −1% and the “Inhibition … (compound activity range)” value is “(−) ((−) is between −10% to 10% inhibition)”. Besides, the inhibition at 20 µM in test [1] (setting [3]) worked out at 4%. Further, in test [1] (setting [4]), the inhibition at 20 µM was -10 to 10%.
For `O=C(Nc1cc(O)c(O)c(O)c1)c1c[nH]c2cc(O)cc(O)c2c1=O` [Compound 22, 5,7-dihydroxy-4-oxo-N-(3,4,5-trihydroxyphenyl)-1,4-dihydroquinoline-3-carboxamide], the inhibition at 20 µM in test [1] (setting [3]) was 58%; in test [1] (setting [4]), 30 to 60%.
Take `COc1cc(OC)c2c(=O)c(C(=O)Nc3ccccc3)c[nH]c2c1` [Compound 25, 5,7-dimethoxy-4-oxo-N-phenyl-1,4-dihydroquinoline-3-carboxamide]: in test [2], the “Inhibition of Aggregation, αSyn” value came to 17% and the “Inhibition … (compound activity range)” value is reported as “(+) ((+) is between 10% to 30% inhibition)”. Further, the inhibition at 20 µM in test [1] (setting [3]) is -150%. Moreover, the inhibition at 20 µM in test [1] (setting [4]) was less than -10%.
For the molecule `COc1cc2[nH]cc(C(=O)Nc3ccc(O)cc3)c(=O)c2c(OC)c1OC` [Compound 29, N-(4-hydroxyphenyl)-5,6,7-trimethoxy-4-oxo-1,4-dihydroquinoline-3-carboxamide], the inhibition at 20 µM in test [1] (setting [3]) is 9%; in test [1] (setting [4]), -10 to 10%.
For the molecule `COc1cc2[nH]cc(C(=O)Nc3ccccc3)c(=O)c2c(OC)c1OC` [Compound 30, 5,6,7-trimethoxy-4-oxo-N-phenyl-1,4-dihydroquinoline-3-carboxamide], the figures for the inhibition at 20 µM in test [1] (setting [3]) and in test [1] (setting [4]) were -56% and less than -10%, respectively.
In the same order, the values of `COc1cc(OC)c2c(=O)c(C(=O)Nc3ccc(O)cc3)c[nH]c2c1` [Compound 31, N-(4-hydroxyphenyl)-5,7-dimethoxy-4-oxo-1,4-dihydroquinoline-3-carboxamide] are -20% and less than -10%.
In the same order, the values of `COc1cc2[nH]cc(C(=O)Nc3ccc(O)c(F)c3)c(=O)c2c(OC)c1OC` [Compound 34, N-(3-fluoro-4-hydroxyphenyl)-5,6,7-trimethoxy-4-oxo-1,4-dihydroquinoline-3-carboxamide] are -11% and less than -10%.
For `COc1cc(OC)c2c(=O)c(C(=O)N(C)c3cc(OC)c(OC)c(OC)c3)c[nH]c2c1` [Compound 35, 5,7-dimethoxy-N-methyl-4-oxo-N-(3,4,5-trimethoxyphenyl)-1,4-dihydroquinoline-3-carboxamide], the inhibition at 20 µM in test [1] (setting [3]) was -53%; in test [1] (setting [4]) it was less than -10%.
In the same order, the values of `COc1cc(-c2[nH]c3cc(OC)c(OC)c(OC)c3c(=O)c2C(=O)O)cc(OC)c1OC` [Compound 36, 5,6,7-trimethoxy-4-oxo-2-(3,4,5-trimethoxyphenyl)-1,4-dihydroquinoline-3-carboxylic acid] are -47% and less than -10%.
Taken in the same sequence, the figures for `COc1cc(OC)c2c(=O)c(C(=O)Nc3ccc(O)c(F)c3)c[nH]c2c1` [Compound 37, N-(3-fluoro-4-hydroxyphenyl)-5,7-dimethoxy-4-oxo-1,4-dihydroquinoline-3-carboxamide] were -17% and less than -10%.
On to `O=C(Nc1ccc(O)cc1)c1c[nH]c2cc(O)c(O)c(O)c2c1=O` [Compound 38, 5,6,7-trihydroxy-N-(4-hydroxyphenyl)-4-oxo-1,4-dihydroquinoline-3-carboxamide], for which, in test [2], the “Inhibition of Aggregation, αSyn” value stood at 14% and the “Inhibition … (compound activity range)” value is “(+) ((+) is between 10% to 30% inhibition)”.
`COc1cc2[nH]cc(C(=O)Nc3ccccc3O)c(=O)c2c(OC)c1OC` [Compound 39, N-(2-hydroxyphenyl)-5,6,7-trimethoxy-4-oxo-1,4-dihydroquinoline-3-carboxamide]: the values for the inhibition at 20 µM in test [1] (setting [3]) and in test [1] (setting [4]) were -4% and -10 to 10%, respectively.
Take `O=C(Nc1ccccc1)c1c[nH]c2ccccc2c1=O` [Compound 45, 4-oxo-N-phenyl-1,4-dihydroquinoline-3-carboxamide]: the inhibition at 20 µM is -18% in test [1] (setting [3]) and less than -10% in test [1] (setting [4]).
In the same order, the values of `O=C(Nc1cccc(O)c1)c1c[nH]c2ccccc2c1=O` [Compound 46, N-(3-hydroxyphenyl)-4-oxo-1,4-dihydroquinoline-3-carboxamide] are -7% and -10 to 10%.
In the same order, the values of `O=C(Nc1cc(O)cc(O)c1)c1c[nH]c2cc(O)cc(O)c2c1=O` [Compound 47, N-(3,5-dihydroxyphenyl)-5,7-dihydroxy-4-oxo-1,4-dihydroquinoline-3-carboxamide] are 13% and 10 to 30%.
